From patent US12509460B2 (Skyhawk Therapeutics, Inc., priority 2019, dated 2025)

Experiments:
MDR1 (P-gp) = assay: Blood-brain-barrier (BBB) penetration potential via MDCK-MDR1 permeability assay; details: dog; for Papp A→B at 120 min, 5 μM: MDCK-MDR1, pH 7.4, MDCK-MDR1: Papp A-B, A-B direction; for Papp B→A at 120 min, 5 μM: MDCK-MDR1, pH 7.4, MDCK-MDR1: Papp B-A, B-A direction
[1] = test system: MDR1-MDCK cell monolayers; assay: as above; details: for MDCK-MDR1: % Recov A-B: A-B direction; for MDCK-MDR1: % Recov B-A: B-A direction
MDR1 = assay: as above; details: dog, MDCK-MDR1, pH 7.4, MDCK-MDR1: Efflux, efflux ratio
[2] = test system: mHTT protein in GM04724 (CAG 70/20) Huntington's disease patient lymphoblast cells; assay: mHTT protein assay, 2B7-MW1 assay via Mesoscale Discovery (MSD); type: cell-based, human; details: GM04724 Huntington's disease patient lymphoblasts
Summary of the method: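 Signal from the 2B7-MW1 antibody pair on MSD, rising with polyQ length and smaller HTT fragments, measured mHTT after 48 h compound exposure (0.6 nM–10 μM) in GM04724 cells. A parallel replicate plate gave CellTiter Glo viability.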

[3] = Quantitative splicing assay (HTT), qPCR; type: cell-based, human; details: Homo sapiens, GM04724, 24 h, GM04724 lymphoblasts, qPCR, read-out: HTT Splicing: E49-50 EC50
Summary of the method: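 TaqMan qPCR on cell-lysate cDNA quantifies cryptic-exon inclusion from HTT intron 49. Lymphoblasts plated at 50,000 cells/well had received compound for 24 h, 0.15 nM-2.5 uM range, 0.1% DMSO.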

[4] = test system: SMN FL and SMN Δ7 in spinal muscular atrophy (SMA) patient fibroblasts (GM03813, Coriell); assay: Quantitative splicing assay (SMN), qPCR; type: cell-based, human; details: Homo sapiens, Fibroblast, 24 h, SMA patient fibroblasts GM03813, 24 h, qPCR; read-out: SMN2 Splicing FL EC50
Protocol: Spinal muscular atrophy (SMA) patient fibroblasts (GM03813, Coriell) are plated in 96-well plates at 50,000 cells/well. […] Treated cells are lysed and cDNA synthesized using the Fast Advanced Cells-to-Ct kit (Thermofisher A35378) according to the manufacturer's instructions. 2 μL of each cDNA are used in qPCR reactions. […] Reactions are run in a Quant Studio 6 qPCR instrument with default settings.

[5] = test system: SMN protein in spinal muscular atrophy (SMA) patient fibroblasts (GM03813, Coriell); assay: SMN protein assay, Mesoscale Discovery (MSD); type: cell-based, human; details: SMA patient fibroblasts GM03813, 48 hours, MSD; read-out: SMN2 protein EC50
Summary of the method: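 Absolute SMN levels were quantified by MSD against an SMN protein standard curve (1 μg/ml to 19.5 pg/ml) run on each plate. Samples were lysates of GM03813 patient fibroblasts (7000 cells/well) treated 48 hours with compound doses from 2.5 μM down to 0.6 nM.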

Structure (SMILES) | Papp A→B at 120 min, 5 μM (MDR1 (P-gp)) | Papp B→A at 120 min, 5 μM (MDR1 (P-gp)) | MDCK-MDR1: % Recov A-B [1] | MDCK-MDR1: % Recov B-A [1] | efflux ratio at 120 min, 5 μM (MDR1) | EC50 [2] | EC50 [3] | EC50 [4] | EC50 [5]
CCc1cn(-c2ccc(-c3ccc(N(C)[C@@H]4C[C@H]5CC(F)(F)[C@@H](C4)N5)nn3)c(O)c2)cn1 [Compound 18A, 2-(6-(((1S,3R,5R)-6,6-difluoro-8-azabicyclo[3.2.1]octan-3-yl)(methyl)amino)pyridazin-3-yl)-5-(4-ethyl-1H-imidazol-1-yl)phenol] | 70 nm/s | 407 nm/s | 56% | 71% | 6 | 51 to 100 nM | 16 to 50 nM | 16 to 50 nM | 0.01 to 15 nM
Cc1cc(=O)c2cc(O)c(-c3ccc(N(C)[C@H]4C[C@@H]5CC[C@@H](N5)[C@H]4F)nn3)cc2o1 [Compound 49B, 7-(6-(((1R,2R,3S,5S)-2-fluoro-8-azabicyclo[3.2.1]octan-3-yl)(methyl)amino)pyridazin-3-yl)-6-hydroxy-2-methyl-4H-chromen-4-one] | 8.6 nm/s | 329 nm/s | 86% | 91% | 38 | 0.01 to 15 nM | 0.01 to 15 nM | 0.01 to 15 nM | 0.01 to 15 nM
Cc1ccc(-c2ccc(-c3ccc(N(C)[C@H]4C[C@@H]5CCC[C@@H](N5)[C@H]4F)nn3)c(O)c2)nn1 [Compound 27B, 2-(6-(((1R,2R,3S,5S)-2-fluoro-9-azabicyclo[3.3.1]nonan-3-yl)(methyl)amino)pyridazin-3-yl)-5-(6-methylpyridazin-3-yl)phenol] | 11.3 nm/s | 435 nm/s | 98% | 115% | 38 | 0.01 to 15 nM | 16 to 50 nM | 0.01 to 15 nM | 0.01 to 15 nM
CN(c1ccc(-c2cc3c(=O)n(C)ccc3cc2O)nn1)[C@H]1C[C@@H]2CC[C@@H](N2)[C@H]1F [Compound 83B, 7-(6-(((1R,2R,3S,5S)-2-fluoro-8-azabicyclo[3.2.1]octan-3-yl)(methyl)amino)pyridazin-3-yl)-6-hydroxy-2-methylisoquinolin-1(2H)-one] | 14.3 nm/s | 444 nm/s | 77% | 72% | 31 | 0.01 to 15 nM | 0.01 to 15 nM | 0.01 to 15 nM | 0.01 to 15 nM
O=C(c1cc2cc(O)c(-c3ccc(N(C4CC4)[C@H]4C[C@@H]5CC[C@@H](N5)[C@H]4F)nn3)cc2o1)N1CCC1 [Compound 57B, azetidin-1-yl(6-(6-(cyclopropyl((1R,2R,3S,5S)-2-fluoro-8-azabicyclo[3.2.1]octan-3-yl)amino)pyridazin-3-yl)-5-hydroxybenzofuran-2-yl)methanone] | 6.9 nm/s | 485 nm/s | 99% | 95% | 71 | 0.01 to 15 nM | 16 to 50 nM | 16 to 50 nM | 0.01 to 15 nM
CN(c1ccc(-c2cc3occc(=O)c3cc2O)nn1)[C@@H]1C[C@H]2CC[C@H](N2)[C@@H]1F [Compound 43A, 7-(6-(((1S,2S,3R,5R)-2-fluoro-8-azabicyclo[3.2.1]octan-3-yl)(methyl)amino)pyridazin-3-yl)-6-hydroxy-4H-chromen-4-one] | 21.4 nm/s | 232 nm/s | 64% | 58% | 11 | 16 to 50 nM | 51 to 100 nM | 16 to 50 nM | 0.01 to 15 nM
CN(c1ccc(-c2cc(F)c(-n3ccnn3)cc2O)nn1)[C@H]1C[C@@H]2CC[C@@H](N2)[C@H]1F [Compound 52B, 4-fluoro-2-(6-(((1R,2R,3S,5S)-2-fluoro-8-azabicyclo[3.2.1]octan-3-yl)(methyl)amino)pyridazin-3-yl)-5-(1H-1,2,3-triazol-1-yl)phenol] | 74.4 nm/s | 544 nm/s | 97% | 90% | 7 | 0.01 to 15 nM | 16 to 50 nM | 16 to 50 nM | 0.01 to 15 nM
CN(c1ccc(-c2ccc(-c3cnc(C#N)cn3)cc2O)nn1)[C@H]1C[C@@H]2CCC[C@@H](N2)[C@H]1F [Compound 28B, 5-(4-(6-(((1R,2R,3S,5S)-2-fluoro-9-azabicyclo[3.3.1]nonan-3-yl)(methyl)amino)pyridazin-3-yl)-3-hydroxyphenyl) pyrazine-2-carbonitrile] | 11.1 nm/s | 389 nm/s | 36% | 70% | 35 | 16 to 50 nM | 0.01 to 15 nM | 0.01 to 15 nM | 0.01 to 15 nM
CN(c1ccc(-c2ccc(-n3ccnn3)cc2O)nn1)[C@@H]1C[C@H]2CCC[C@H](N2)[C@@H]1F [Compound 62A, 2-(6-(((1S,2S,3R,5R)-2-fluoro-9-azabicyclo[3.3.1]nonan-3-yl)(methyl)amino)pyridazin-3-yl)-5-(1H-1,2,3-triazol-1-yl)phenol] | 33.7 nm/s | 614 nm/s | 113% | 109% | 18 | 0.01 to 15 nM | 0.01 to 15 nM | 16 to 50 nM | 16 to 50 nM
CN(c1ccc(-c2ccc(-c3ccccn3)cc2O)nn1)[C@H]1C[C@@H]2CCC[C@@H](N2)[C@H]1F [Compound 23B, 2-(6-(((1R,2R,3S,5S)-2-fluoro-9-azabicyclo[3.3.1]nonan-3-yl)(methyl)amino)pyridazin-3-yl)-5-(pyridin-2-yl)phenol] | 31.7 nm/s | 482 nm/s | 68% | 98% | 15 | 16 to 50 nM | 16 to 50 nM | 16 to 50 nM | 0.01 to 15 nM
CN(c1ccc(-c2cc3cccnc3cc2O)nn1)[C@H]1C[C@@H]2CCC[C@@H](N2)[C@H]1F [Compound 41B, 6-(6-(((1R,2R,3S,5S)-2-fluoro-9-azabicyclo[3.3.1]nonan-3-yl)(methyl)amino)pyridazin-3-yl)quinolin-7-ol] | 25.7 nm/s | 367 nm/s | 60% | 95% | 14 | 0.01 to 15 nM | 16 to 50 nM | 16 to 50 nM | 0.01 to 15 nM
